According to ChEMBL document CHEMBL1201862, “PubChem BioAssay data set” (2004):
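Dose response: 5 concentrations. Exposure: 48 h. Format: 96-well plates. Endpoint: linear interpolation; highest concentration if not reached. Here, GI50 denotes the concentration required for 50% inhibition of growth.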 Activity calls are given as the source filed them. Rule as the data show it: active = GI50 up to about 1.1 µM and inactive = higher.

Legend:
Experiment in all cases: growth of human tumour cells (NCI), 48 h
786-0 = test system: 786-0
OVCAR-5 = test system: OVCAR-5
SF-268 = test system: SF-268
T47D = test system: T47D
Hs-578T = test system: Hs-578T
IGROV-1 = test system: IGROV-1
TK-10 = test system: TK-10
ACHN = test system: ACHN
DU-145 = test system: DU-145
RPMI-8226 = test system: RPMI-8226
MDA-MB-435 = test system: MDA-MB-435
MDA-N = test system: MDA-N
A549 = test system: A549
SK-MEL-2 = test system: SK-MEL-2
NCI/ADR-RES = test system: NCI/ADR-RES
COLO 205 = test system: COLO 205
HOP-92 = test system: HOP-92
HCC 2998 = test system: HCC 2998
SN12C = test system: SN12C
HT-29 = test system: HT-29
MOLT-4 = test system: MOLT-4
SNB-19 = test system: SNB-19
SK-MEL-28 = test system: SK-MEL-28
K562 = test system: K562
OVCAR-4 = test system: OVCAR-4
SK-OV-3 = test system: SK-OV-3
M14 = test system: M14
A498 = test system: A498
UACC-62 = test system: UACC-62
SR = test system: SR
HOP-62 = test system: HOP-62
NCI-H522 = test system: NCI-H522
CAKI-1 = test system: CAKI-1
Malme-3M = test system: Malme-3M
LOX IMVI = test system: LOX IMVI
MCF7 = test system: MCF7
NCI-H23 = test system: NCI-H23
HCT-15 = test system: HCT-15
HCT-116 = test system: HCT-116
SW-620 = test system: SW-620
UACC-257 = test system: UACC-257
PC-3 = test system: PC-3
EKVX = test system: EKVX
U-251 = test system: U-251
OVCAR-3 = test system: OVCAR-3
UO-31 = test system: UO-31
SF-295 = test system: SF-295
SK-MEL-5 = test system: SK-MEL-5
SF-539 = test system: SF-539
RXF 393 = test system: RXF 393
NCI-H460 = test system: NCI-H460
MDA-MB-231 = test system: MDA-MB-231
HL-60 = test system: HL-60
NCI-H226 = test system: NCI-H226

Q: Which results are given for `C=CC[C@@]12CCC(=O)C=C1CCCC2=O`?
A: GI50 (786-0): > 100 µM (inactive); GI50 (OVCAR-5): > 100 µM (inactive); GI50 (SF-268): > 100 µM (inactive); GI50 (T47D): > 100 µM (inactive); GI50 (Hs-578T): > 100 µM (inactive); GI50 (IGROV-1): > 100 µM (inactive); GI50 (TK-10): > 100 µM (inactive); GI50 (ACHN): > 100 µM (inactive); GI50 (DU-145): > 100 µM (inactive); GI50 (RPMI-8226): > 100 µM (inactive); GI50 (MDA-MB-435): > 100 µM (inactive); GI50 (MDA-N): > 100 µM (inactive); GI50 (A549): > 100 µM (inactive); GI50 (SK-MEL-2): > 100 µM (inactive); GI50 (NCI/ADR-RES): > 100 µM (inactive); GI50 (COLO 205): > 100 µM (inactive); GI50 (HOP-92): > 100 µM (inactive); GI50 (HCC 2998): > 100 µM (inactive); GI50 (SN12C): > 100 µM (inactive); GI50 (HT-29): > 100 µM (inactive); GI50 (MOLT-4): > 100 µM (inactive); GI50 (SNB-19): > 100 µM (inactive); GI50 (SK-MEL-28): > 100 µM (inactive); GI50 (K562): > 100 µM (inactive); GI50 (OVCAR-4): > 100 µM (inactive); GI50 (SK-OV-3): > 100 µM (inactive); GI50 (M14): > 100 µM (inactive); GI50 (A498): > 100 µM (inactive); GI50 (UACC-62): > 100 µM (inactive); GI50 (SR): > 100 µM (inactive); GI50 (HOP-62): > 100 µM (inactive); GI50 (NCI-H522): > 100 µM (inactive); GI50 (CAKI-1): > 100 µM (inactive); GI50 (Malme-3M): > 100 µM (inactive); GI50 (LOX IMVI): > 100 µM (inactive); GI50 (MCF7): > 100 µM (inactive); GI50 (NCI-H23): > 100 µM (inactive); GI50 (HCT-15): > 100 µM; GI50 (HCT-116): > 100 µM (inactive); GI50 (SW-620): > 100 µM (inactive); GI50 (UACC-257): > 100 µM (inactive); GI50 (PC-3): > 100 µM (inactive); GI50 (EKVX): > 100 µM (inactive); GI50 (U-251): > 100 µM (inactive); GI50 (OVCAR-3): > 100 µM (inactive); GI50 (UO-31): > 100 µM (inactive); GI50 (SF-295): > 100 µM (inactive); GI50 (SK-MEL-5): > 100 µM (inactive); GI50 (SF-539): > 100 µM (inactive); GI50 (RXF 393): > 100 µM (inactive); GI50 (NCI-H460): > 100 µM (inactive); GI50 (MDA-MB-231): > 100 µM (inactive); GI50 (HL-60): > 100 µM (inactive); GI50 (NCI-H226): > 100 µM (inactive)
